Test results: patent US20090047278A1, “Novel Combinational Use of Sulfonamide Compound” (Eisai R & D Management Co., Ltd., priority 2005, published 2009)

Key:
HCT116 cells = experiment: DNA microarray analysis of gene expression changes, correlation and cluster analysis (Example 8); format: cell-based, human; conditions: HCT116, 24 hours, at twice the 50% growth inhibitory concentration; different from profiles of the other six compounds
Protocol: HCT116 cells were cultured in an RPMI-1640 medium supplemented with 10% fetal bovine serum, 100 units/ml penicillin and 100 μg/ml streptomycin. The following cultivation and compound treatment were carried out in an incubator at 5% CO2 and 37° C. HCT116 cells were seeded in 10 cm-diameter cell culture dishes at 2.0×10^6 cells/dish, cultured for 24 hours and subjected to the following compound treatment.
In this example, changes in the gene expression of HCT116 cells upon treatments with 12 compounds, i.e., E7820 (0.16 μM), E7070 (0.26 μM), LY186641 (59 μM), LY295501 (24 μM), LY-573636 (9.6 μM), CQS (4.0 μM), MST16 (100 μM), etoposide (3.6 μM), ethoxzolamide (410 μM), capsaicin (280 μM), trichostatin A (0.16 μM) and kenpaullone (7.1 μM) were examined.
The concentration of each compound used for the treatment was set to twice the 50% growth inhibitory concentration of each compound to the HCT116 cells (based on three days of antiproliferative activity using MTT). The cells were collected 24 hours after the treatment at the concentration indicated in parentheses following each compound name above. Similarly, cells cultured for 24 hours without the addition of any compound were also collected.
Total RNA extraction from the collected cells was performed using TRIZOL reagent (Invitrogen) according to the attached instruction.
Gene expression analysis using a DNA microarray was carried out in the same manner as “(2) Analysis of gene expression using DNA microarray” in Example 7.
This example was conducted for each sample in duplicate (for the convenience of the experiment, samples were given branch numbers like control-1, control-2, E7070-1, E7070-2 and so on for distinction). Then, GeneChip (Affymetrix) system (Human Focus array) was used for analyzing changes in the gene expression induced by each compound.
Twenty-six “.cel” files obtained in this example (13 samples (a control+12 compounds)×2) were subjected to RMA method (robust multi-array average method (Biostatistics (2003), 4, 249-264)) for normal distribution at probe level, and then the logarithm value of the signal intensity at gene level was calculated. Next, the logarithm value of the signal intensity of the untreated group (control-1) was subtracted from the logarithm value of the signal intensity of the compound-treated group for each gene to obtain the logarithm value of the signal ratio of the compound-treated group to control-1. Then, cosine correlation coefficients were calculated as correlation coefficients between the experiments (FIG. 9). Based on these correlation coefficients, hierarchical cluster analysis was performed according to UPGMA method (Unweighted Pair Group Method with Arithmetic mean method) (FIG. 10). Control-2 was also subjected to similar calculation (FIGS. 11 and 12). The softwares used were R 2.0.1 (http://www.r-project.org/) and affy package 1.5.8 (http://www.bioconductor.org).

[1] = test system: human non-small-cell lung cancer cell line (A549); experiment: E7820 and gefitinib in subcutaneous transplant model of A549; format: in vivo; conditions: A549 s.c. in nude mouse; oral; E7820 50 mg/kg twice a day, gefitinib 75 mg/kg once a day, 3 weeks; Day 1 = first administration
Protocol: (§1) Human non-small-cell lung cancer cell line A549 (purchased from Dainippon Pharmaceutical) was cultured in RPMI1640 (containing 10% FBS) in a 5% carbon dioxide incubator at 37° C. to about 80% confluence, and the cells were collected with trypsin-EDTA. Using a phosphate buffer containing 50% matrigel, 5×10^7 cells/mL suspension was prepared, and 0.1 mL each of the resulting cell suspension was subcutaneously transplanted to a nude mouse at the side of its body. Ten days after the transplantation, E7820 and gefitinib were orally administered alone or in combination for 50 mg/kg twice a day for 3 weeks and for 75 mg/kg once a day for 3 weeks, respectively. The major and minor axes of tumors were measured with Digimatic caliper (Mitsutoyo), and tumor volumes and relative tumor volumes were calculated according to the following formulae.
Tumor Volume TV=Major axis of tumor(mm)×(minor axis of tumor)^2(mm^2)/2
(§2) Relative Tumor Volume RTV=Tumor volume on measurement day/Tumor volume on the first administration day

[2] = test system: human non-small-cell lung cancer cell line (PC9); experiment: E7820 and gefitinib in subcutaneous transplant model of PC9; format: in vivo; conditions: PC9 s.c. in nude mouse; oral; E7820 50 mg/kg twice a day, gefitinib 75 mg/kg once a day, 2 weeks; Day 1 = first administration
Protocol: Using a phosphate buffer, 5×10^7 cells/mL suspension was prepared, and 0.1 mL each of the resulting cell suspension was subcutaneously transplanted to a nude mouse at the side of its body. Eight days after the transplantation, E7820 and gefitinib were orally administered alone or in combination for 50 mg/kg twice a day for 2 weeks and for 75 mg/kg once a day for 2 weeks, respectively. The major and minor axes of tumors were measured with Digimatic caliper (Mitsutoyo), and tumor volumes and relative tumor volumes were calculated according to the following formulae.
(§3) Tumor Volume TV=Major axis of tumor(mm)×(Minor axis of tumor)^2(mm^2)/2
as §2

[3] = test system: human non-small-cell lung cancer cell line (A549); experiment: E7820 and erlotinib in subcutaneous transplant model of A549; format: in vivo; conditions: A549 s.c. in nude mouse; oral; E7820 50 mg/kg twice a day, erlotinib 100 mg/kg once a day, 2 weeks; Day 1 = first administration
Protocol: as §1, with “body. Seventeen” for “body. Ten”, “and erlotinib” for “and gefitinib”, “for 2” for “for 3”, “for 100” for “for 75”
as §3, §2

[4] = test system: human colon cancer cell line (WiDr); experiment: E7820 and cetuximab in subcutaneous transplant model of WiDr; format: in vivo; conditions: WiDr s.c. in nude mouse; E7820 oral 50 mg/kg twice a day, cetuximab i.p. 100 mg/kg twice a week, 2 weeks; Day 1 = first administration
Protocol: Human colon cancer cell line WiDr (obtained from Dainippon Pharmaceutical) was cultured in RPMI1640 (containing 10% FBS) in a 5% carbon dioxide incubator at 37° C. to about 80% confluence, and the cells were collected with trypsin-EDTA. Using a phosphate buffer, 5×10^7 cells/mL suspension was prepared, and 0.1 mL each of the resulting cell suspension was subcutaneously transplanted to a nude mouse at the side of its body.

[5] = test system: human renal cancer cell line (ACHN); experiment: E7820 and cetuximab in subcutaneous transplant model of ACHN; format: in vivo; conditions: ACHN s.c. in nude mouse; E7820 oral 50 mg/kg twice a day, cetuximab i.p. 100 mg/kg twice a week, 2 weeks; Day 1 = first administration
Protocol: Human renal cancer cell line ACHN (obtained from Dainippon Pharmaceutical) was cultured in RPMI1640 (containing 10% FBS) in a 5% carbon dioxide incubator at 37° C. to about 80% confluence, and the cells were collected with trypsin-EDTA. Using a phosphate buffer, 1×10^8 cells/mL suspension was prepared, and 0.1 mL each of the resulting cell suspension was subcutaneously transplanted to a nude mouse at the side of its body.
Tumor Volume TV=Major axis of tumor(mm)×(Minor axis of tumor)^2 (mm^2)/2

HCT116-C9 = experiment: Cross-resistance in E7070-resistant cell line, antiproliferative activity by MTT method; format: cell-based, human; conditions: Example 11, 72 hours
Protocol: An E7070-resistant cell line was used to assess the antiproliferative activities of E7820, LY186641, LY295501, LY-ASAP and CQS. HCT116-C9 was a substrain separated from human colon cancer-derived HCT116 (American Type Culture Collection, Manassas, Va., U.S.A.). This HCT116-C9 was cultured in the presence of E7070 while increasing the E7070 concentration by degrees, thereby obtaining E7070-resistant substrains HCT116-C9-C1 and HCT116-C9-C4 (Molecular Cancer Therapeutics, 2002, 1, 275-286).
Three cell lines, i.e., HCT116-C9, HCT116-C9-C1 and HCT116-C9-C4, were each seeded at 3000 cells/well onto a 96-well microplate (flat bottom) (50 μl/well). Twenty-four hours later, they were added with a 3-fold dilution series of each compound (50 μl/well). Seventy-two hours later, the antiproliferative activities were assessed by MTT method (Mossmann T., J. Immunol. Methods, 1983, 65, 55-63). The 50% growth inhibitory concentrations to the cancer cells were obtained by a least square method.
In exactly the same manner as in Example 10, an E7070-resistant cell line was used to assess the antiproliferative activities of LY573636 as well as those of E7070.

For O=C(Nc1ccc(Cl)c(Cl)c1)NS(=O)(=O)c1ccc2c(c1)CCO2 [LY295501, N-[[(3,4-dichlorophenyl)amino]carbonyl]-2,3-dihydrobenzofuran-5-sulfonamide], the “similarity of changes in gene expression (cosine correlation, cluster analysis) among E7070, E7820, LY186641, LY295501, LY573636 and CQS” value (“similarity of changes in gene expression” for short) (HCT116 cells) was “very similar genetic alterations”.
In the case of COc1cc2ncnc(Nc3ccc(F)c(Cl)c3)c2cc1OCCCN1CCOCC1 [Gefitinib, 4-(3-chloro-4-fluorophenylamino)-7-methoxy-6-(3-(4-morpholino)propoxy-quinazoline), reference compound], the “Relative tumor volume on Day 22 Average ± standard deviation” value [1] is reported as 2.26 ± 0.59 and the “Relative tumor volume on Day 15 Average ± standard deviation” value [2] is reported as 0.36 ± 0.12.
C#Cc1cccc(Nc2ncnc3cc(OCCOC)c(OCCOC)cc23)c1 [Erlotinib, 4-(3-ethynylphenylamino)-6,7-bis(2-methoxyethoxy)-quinazoline, reference compound] was tested, and the “Relative tumor volume on Day 15 Average ± standard deviation” value [3] was 1.94 ± 0.19.
For Nc1ccc(S(=O)(=O)Nc2cnc3c(Cl)cccc3n2)cc1 [CQS, 2-sulfanylamide-5-chloroquinoxaline], the “similarity of changes in gene expression” value (HCT116 cells) was “very similar genetic alterations”.
In the case of Cc1ccc(NS(=O)(=O)c2cccc(C#N)c2)c2[nH]cc(C#N)c12 [E7820, N-(3-cyano-4-methyl-1H-indole-7-yl)-3-cyanobenzenesulfonamide], the “Relative tumor volume on Day 15 Average ± standard deviation” value [4] is reported as 3.3 ± 0.6, the “Relative tumor volume on Day 22 Average ± standard deviation” value [1] is reported as 3.69 ± 0.68 and the “Relative tumor volume on Day 15 Average ± standard deviation” value [3] is reported as 2.62 ± 0.07. For the same compound, the “Relative tumor volume on Day 15 Average ± standard deviation” value [5] was 1.3 ± 0.2, the “similarity of changes in gene expression” value (HCT116 cells) was “very similar genetic alterations” and the “Relative tumor volume on Day 15 Average ± standard deviation” value [2] was 2.57 ± 0.41.
In the case of O=C(NS(=O)(=O)c1ccc(Br)s1)c1ccc(Cl)cc1Cl [LY573636, N-(2,4-dichlorobenzoyl)-5-bromothiophene-2-sulfonamide], the “similarity of changes in gene expression” value (HCT116 cells) is reported as “very similar genetic alterations”.
In the case of O=C(Nc1ccc(Cl)cc1)NS(=O)(=O)c1ccc2c(c1)CCC2 [LY186641, N-[[(4-chlorophenyl)amino]carbonyl]-2,3-dihydro-1H-indene-5-sulfonamide], the “similarity of changes in gene expression” value (HCT116 cells) is reported as “very similar genetic alterations”.
For NS(=O)(=O)c1ccc(S(=O)(=O)Nc2cccc3c(Cl)c[nH]c23)cc1 [E7070, N-(3-chloro-1H-indole-7-yl)-4-sulfamoylbenzenesulfonamide], the IC50 (HCT116-C9) was 127 nM and the “similarity of changes in gene expression” value (HCT116 cells) was “very similar genetic alterations”.
